Assay [1] deals with T1, 67LR forced expression cells (A549 with 67LR expression vector) (Homo sapiens, UniProt P08865).
T1 construct: expressed in transfected cells; host or cells: A549 cells, transient transfection with pTARGET-hLamininR (FuGENE 6)
The experiment in a line: Binding to 67LR forced expression cells by surface plasmon resonance sensor. The settings on record: for change of cell binding in 67LR forced expression cells: surface plasmon resonance biosensor, 5 μM; for angle change (binding amount): EGCG 5 μM. Here is the method:
(§1) The binding of various component (5 μM) to the cells was determined by using a surface plasmon resonance sensor SPR670 (Nippon Laser and Electronic Lab., Nagoya, Japan). For the measurement, the cells were fixed on a gold membrane (Nippon Laser and Electronic Lab.) according to a standard fixation method for protein. Precisely, a gold membrane was dipped in a solution in ethanol of […] of 4,4-dithiodibutyric acid, DDA (Tokyo Kasei Kogyo Co., Ltd., Tokyo, Japan) (this was prepared by dissolving 2.38 mg of DDA in 10 ml of 99% ethanol followed by diluting it with ethanol to 1/100) in such a manner that its gold surface could face upward, and gently stirred at room temperature for 30 minutes. Next, this was washed twice with ethanol with no pressure applied to the gold surface to thereby introduce a self-assembly membrane (SA membrane). 25 mg of a water-soluble carbodiimide, EDC (Wako Pure Chemicals) was dissolved in 1 ml of ultra-pure water; and 15 mg of N-hydroxysuccinimide, NHS (Wako Pure Chemicals) was dissolved in 9 ml of 1,4-dioxane (Nacalai Tesque, Inc.). These solutions were mixed, and the SA membrane-processed gold membrane was dipped into the mixture, and gently stirred at room temperature for 10 minutes. 10 ml of ultra-pure water was added, and further stirred at room temperature for 5 minutes. This was washed twice with ultra-pure water with no water pressure applied to the gold surface thereof, then dried (in air), and mounted on a cartridge. The cells were suspended to a density of 3×10^5 cells/ml (in a flow buffer, PBS), and 20 μl of the cell suspension was dropwise applied onto the gold membrane and kept at room temperature for 30 minutes so as to fix the cells onto the membrane. Next, a green tea catechin diluted with PBS to have a concentration of 1, 10, 25 or 50 μM was applied thereto, and the change in the surface plasmon resonance angle was determined so as to monitor its binding to the cells.
(§2) 67LR is a membrane protein existing in a cell membrane, and the fact that the EGCG effect was enhanced in the cells with the gene expression vector introduced therein would be due to the increase in the EGCG binding. Accordingly, the EGCG binding to the cells was determined by the sue of a surface plasmon resonance sensor. EGCG was used at 5 μM.

A further assay relates to A549 cells. The experiment in a line: Binding to A549 cells (empty vector / parent) by surface plasmon resonance sensor. More on the design: species or system human. The settings on record: for cell binding to A549 cells: surface plasmon resonance biosensor, 5 μM. Here is the method:
as §1, §2
Background: In SPR one partner is held on a chip, and binding of the other changes the refractive index at the surface.

The test system of assay [2] is 67LR forced expression cells (A549). Briefly: Cell growth test (cell count, Tripanblue staining) on 67LR transient expression A549 cells. Format: cell-based, human. The settings on record: for number of the cells / growth inhibiting effect (influence of 67LR gene introduction) / survival rate (influence of 67LR gene introduction): 5 μM, 0.5 μg pTARGET-hLamininR in A549 cells; for survival rate (influence of 67LR gene introduction): Tripanblue staining. Here is the method:
The 67LR expression vector constructed (pTARGET-hLamininR) was introduced into A549 cells, using FuGENE™ 6 Transfection Reagent. Its details are described below. The cells were inoculated into a 10% FBS-ERDF medium at 1×10^4 cells/ml. By keeping at 37° C. for 24 hours, the cells were adhered to the medium. Next, a fresh ERDF medium was put into a tube, and FuGENE™ 6 (three times the amount of the gene) was directly added and gently mixed. Next, pTARGET-hLamininR was added and gently mixed, and this was kept at room temperature for 30 minutes. This was added to the medium, and kept at 37° C. for 48 hours. The cells were washed with a medium, and then the medium was changed with a fresh one.
(§3) Various components of various concentrations were added to the 67LR transient expression cells, and treated in a 5% FBS-containing ERDF medium at 37° C. for 48 hours. After the treatment, the number of the cells was counted, and the survival rate of the cells was determined according to a Tripanblue staining method.
Using FuGENE™ 6 Transfection Reagent, a 67LR expression vector (pTARGET-hLamininR) was introduced into A549 cells according to the method mentioned below. The cells were inoculated at 1×10^4 cells/ml (10% FBS-ERDF medium). After 24 hours, a fresh ERDF medium was put into a tube, and FuGENE™ 6 (three times the amount of the gene) was directly added and gently mixed. Next, pTARGET-hLamininR of varying concentrations were added and gently mixed, and this was kept at room temperature for 30 minutes. This was added to the medium, and was continuously cultured at 37° C. for 48 hours. EGCG of various concentrations were added to the 67LR transient expression cells, and treated with a 5% FBS-containing ERDF medium at 37° C. for 48 hours. After the treatment, the number of the cells was counted and the survival rate thereof was determined according to a Tripanblue staining method.
First, the influence of the substances on the growth of 67LR forced expression cells was investigated. Similarly to the above, 0.5 μg of pTARGET-hLamininR was introduced into A549 cells by the lipofection method, followed by cultivation at 37° C. for 48 hours. Then, the cells were treated with various tea components each having a final concentration of 5 μM. The cells were further cultivated at 37° C. for 48 hours, and then the number of the cells and the survival rate thereof were determined.

Assay [3] deals with T2, 67LR forced expression cells (Homo sapiens, UniProt P08865).
T2 construct: expressed in transfected cells; host or cells: A549 cells, transient transfection with pTARGET-hLamininR (FuGENE 6)
Briefly: Binding competition test of EGCG and anti-67LR antibody (surface plasmon resonance sensor). The settings on record: cells pretreated with anti-67LR antibody 10 μg/ml, 37° C., 30 minutes. The procedure: as §1, with “These solutions were mixed, and the SA membrane-processed gold membrane was dipped into the mixture, and gently stirred at room temperature for 10 minutes. 10 ml of ultra-pure water was added, and further stirred at room temperature for 5 minutes. This was washed twice with ultra-pure water with no water pressure applied to the gold surface thereof, then dried (in air), and mounted on a cartridge. The cells were suspended to a density of 3×10^5 cells/ml (in a flow buffer, PBS), and 20 μl of the cell suspension was dropwise applied onto the gold membrane and kept at room temperature for 30 minutes so as to fix the cells onto the membrane.” left out, “cells. […]” for “cells.”

Assay [4] addresses T2, 67LR forced expression cells. The experiment in a line: Growth inhibition by EGCG after anti-67LR antibody pretreatment of 67LR forced expression cells. The class given is cell-based. The procedure:
as §3
Regarding […] pretreatment, an anti-67LR antibody having a final concentration of 10 μg/ml (1% FBS-containing ERDF medium) was treated at 37° C. for 30 minutes, and then EGCG treatment was carried out so as to investigate the influence thereof on the antibody-treatment cells. As a negative control, the same treatment was carried out with mouse IgM.

The next assay concerns the target 67LR on cell surfaces (Homo sapiens, UniProt P08865). The experiment in a line: Flow cytometry: influence of EGCG treatment on detection of cell surface 67LR by anti-67LR antibody. Format: binding. Here is the method:
It is known that 67LR is expressed on cell surfaces. Therefore, 67LR expressed on the surfaces of the cells was detected through flow cytometry analysis using an anti-human laminin receptor (LR) antibody. The cells were collected, and using a 1.5-ml Eppendorf tube, they were added to 100 μl, as a whole, of 1% FBS-PBS at 1×10^6 cells therein. A primary antibody, anti-human LR antibody was added to it to have a final concentration of 10 μg/ml. This was incubated at 4° C. for 30 minutes, and then washed once with PBS. Next, a secondary antibody, anti-mouse IgM FITC-labeled antibody capable of recognizing an isotype of LR antibody was added to 25 μl, as a whole, of 1% FBS-PBS so as to have a final concentration of 12.5 μg/ml. This was incubated at 4° C. for 30 minutes, then washed twice with PBS, and re-suspended in PBS, and analyzed with a flow cytometer. A negative control IgM antibody of the same concentration (10 μg/ml) was reacted in the same manner as herein. The 67LR expression amount on the cell surfaces was indicated by the center value of the fluorescent intensity of LR.
For the purpose of investigating the influence of EGCG treatment on the cell surface expression of 67LR, the cells were treated with an EGCG-added 1% FBS-PBS having a final EGCG concentration of 50 μM, and then kept at 37° C. for 30 minutes. This was washed once with PBS. Then, this was treated in the same manner as above with the primary antibody and others, and analyzed. As a control, the cells were treated with an EGCG-free 1% FBS-PBS.
A general note: Flow cytometry measures light scatter and fluorescence of single cells or particles in a stream.

Regarding `Oc1cc(O)c2c(c1)O[C@H](c1cc(O)c(O)c(O)c1)[C@H](O)C2` [EGC, epigallocatechin], in assay [1], the “change of cell binding in 67LR forced expression cells” value (“change of cell binding” for short) is on record as “no change”. Moreover, the “cell binding to A549 cells” value in the assay on A549 cells is “no binding”. Moreover, in assay [2] (48 hours), the “number of the cells / growth inhibiting effect (influence of 67LR gene introduction)” value is listed as “no influence” and the “survival rate (influence of 67LR gene introduction)” value is “no influence”.
For `Cn1c(=O)c2c(ncn2C)n(C)c1=O` [caffeine, Caffeine], the “change of cell binding” value in assay [1] is given as “no change”. In addition, the “cell binding to A549 cells” value in the assay on A549 cells is recorded as “did not show cell binding”. The “number of the cells / growth inhibiting effect (influence of 67LR gene introduction)” value in assay [2] (48 hours) is on record as “no influence”.
Consider epigallocatechin-3-O-gallate [EGCG], for which the “EGCG binding amount (angle change)” value in assay [3] is reported as “reduction”. Moreover, in assay [3], the EGCG binding speed result was “reduction”. Besides, the survival rate result in assay [4] (EGCG with or without antibody pretreatment, Tripanblue staining) is on record as “no influence on the survival rate was found”. The “growth inhibiting activity after antibody treatment” value in assay [4] (anti-67LR antibody treatment before EGCG) is “the growth inhibiting activity was lost”. Besides, the “apparent 67LR expression detected by anti-67LR antibody after EGCG” value at 67LR on cell surfaces (EGCG 50 μM before antibody, 67LR-introduced cells) is “it was the same”; at 67LR on cell surfaces (EGCG 50 μM before antibody, cells with empty vector), “The same phenomenon was found”; on 67LR on cell surfaces (EGCG 50 μM, 37° C., 30 minutes before antibody, control A549 cells) it was “apparently disappeared”. Moreover, the “angle change (binding amount)” value is listed as “a great increase in the angle” in assay [1] (cells with 0.25 μg of 67LR expression vector); “a further greater increase in the angle” in assay [1] (cells with 0.5 μg of 67LR expression vector); “Only a little angle change” in the assay with A549 cells (EGCG 5 μM, A549 cells with empty vector). In addition, the “number of the cells / growth inhibiting effect (influence of 67LR gene introduction)” value in assay [2] (48 hours) is recorded as “increase in the growth inhibiting effect”. Besides, the growth inhibiting activity result in assay [2] (EGCG 0.1 μM, 67LR forced expression cells) is listed as “showed its growth inhibiting activity”. In assay [2] (EGCG of various concentrations, 67LR transiently expressed A549 cells, 5% FBS ERDF, 37° C., 48 hours), the cell growth inhibition result was “concentration-dependent cell growth inhibition was observed”. Further, the “cell growth inhibition versus 67LR gene amount introduced” value in assay [2] (pTARGET-hLamininR of varying concentrations, EGCG, 48 hours) is “in proportion to the 67LR gene amount introduced into the cells, cell growth inhibition was also observed”.
In the case of `O=c1c(O)c(-c2ccc(O)c(O)c2)oc2cc(O)cc(O)c12` [quercetin], the “change of cell binding” value in assay [1] is listed as “no change”. Moreover, the “cell binding to A549 cells” value in the assay on A549 cells is “did not show cell binding”. Moreover, in assay [2] (48 hours), the “number of the cells / growth inhibiting effect (influence of 67LR gene introduction)” value is listed as “no influence” and the “survival rate (influence of 67LR gene introduction)” value is given as “no influence”.
On to catechin, for which, in assay [1], the “change of cell binding” value is recorded as “no change”. Further, in the assay with A549 cells, the “cell binding to A549 cells” value is “no binding”. Moreover, in assay [2] (48 hours), the “number of the cells / growth inhibiting effect (influence of 67LR gene introduction)” value was “no influence” and the “survival rate (influence of 67LR gene introduction)” value was “no influence”.
`COc1cc(C(=O)O[C@@H]2Cc3c(O)cc(O)cc3O[C@@H]2c2cc(O)c(O)c(O)c2)cc(O)c1O` [EGCG3″Me, epigallocatechin-3-(3-O-methyl)-gallate]: the “change of cell binding” value in assay [1] was “cell binding increased”. For the same compound, in the assay with A549 cells, the “cell binding to A549 cells” value is “showed cell binding though not comparable to that of EGCG”. Further, the “number of the cells / growth inhibiting effect (influence of 67LR gene introduction)” value in assay [2] (48 hours) is reported as “increase in the growth inhibiting effect”.
On to `O=C(O[C@@H]1Cc2c(O)cc(O)cc2O[C@@H]1c1ccc(O)c(O)c1)c1cc(O)c(O)c(O)c1` [ECG, epicatechin-3-O-gallate], for which, in assay [1], the “change of cell binding” value is on record as “cell binding increased”. In addition, the “cell binding to A549 cells” value with A549 cells was “showed cell binding though not comparable to that of EGCG”. In addition, the “number of the cells / growth inhibiting effect (influence of 67LR gene introduction)” value in assay [2] (48 hours) is “increase in the growth inhibiting effect”.

The record behind these values is patent publication US7736856B2, “Method of screening drug with the use of 67 kDa laminin receptor and drug obtained thereby” (Kyushu TLO Company, Limited, priority 2003, dated 2010).
